Laboratory results published in patent publication EP0908457B1, “3-(1,2-benzisothiazol- and isoxazol-5-Y1)-2,4(1H,3H)-pyrimidinedione or thione and 3-(1,2-benzisothiazol- and isoxazol-5-y1)-4(3H)-pyrimidinone or thione herbicidal agents” (BASF AKTIENGESELLSCHAFT, priority 1997, dated 1999).

Key:
[1] = tested on: Monochoria vaginalis, Presl.; test: Preemergence weed control under flooded paddy conditions, MOOVA (Monochoria); type: in vivo; conditions: preemergence, flooded paddy, rated three to four weeks after treatment
[2] = tested on: Echinochloa oryzoides (Ard.) Fritsch.; test: Preemergence weed control under flooded paddy conditions, ECHORC (Watergrass (Calif.)); type: in vivo; conditions: preemergence, flooded paddy, rated three to four weeks after treatment
[3] = tested on: Cyperus iria; test: Preemergence weed control under flooded paddy conditions, CYPIR (Rice Flatsedge); type: in vivo; conditions: preemergence, flooded paddy, rated three to four weeks after treatment
[4] = tested on: Oryza sativa, (L.) Tebonnet; test: Rice tolerance to post-transplant applications under flooded paddy conditions (Example 187), ORYSAT (Rice, Tebonnet); conditions: rated three to four weeks after treatment
[5] = tested on: Cyperus serotinus, Rottb.; test: Preemergence weed control under flooded paddy conditions, CYPSE (Flatsedge); type: in vivo; conditions: preemergence, rated three to four weeks after treatment
[6] = tested on: Sagittaria pygmaea, L.; test: Preemergence weed control under flooded paddy conditions, SAGPY (Arrowhead (Pygmaea)); type: in vivo; conditions: preemergence, flooded paddy, rated three to four weeks after treatment
Also: meaning of each grade not given here.

Row | SMILES | herbicidal effect rating, MOOVA ([1]; Rate 0.0320 kg/ha) | herbicidal effect rating, MOOVA ([1]; Rate 0.0620 kg/ha) | herbicidal effect rating, MOOVA ([1]; Rate 0.1250 kg/ha) | herbicidal effect rating, MOOVA ([1]; Rate 0.2500 kg/ha) | herbicidal effect rating, ECHORC ([2]; Rate 0.0320 kg/ha) | herbicidal effect rating, ECHORC ([2]; Rate 0.0620 kg/ha) | herbicidal effect rating, ECHORC ([2]; Rate 0.1250 kg/ha) | herbicidal effect rating, ECHORC ([2]; Rate 0.2500 kg/ha) | herbicidal effect rating, CYPIR ([3]; Rate 0.0320 kg/ha) | herbicidal effect rating, CYPIR ([3]; Rate 0.0620 kg/ha) | herbicidal effect rating, CYPIR ([3]; Rate 0.1250 kg/ha) | herbicidal effect rating, CYPIR ([3]; Rate 0.2500 kg/ha) | herbicidal effect rating ORYSAT ([4]; Rate 0.0320 kg/ha) | herbicidal effect rating ORYSAT ([4]; Rate 0.0620 kg/ha) | herbicidal effect rating ORYSAT ([4]; Rate 0.1250 kg/ha) | herbicidal effect rating ORYSAT ([4]; Rate 0.2500 kg/ha) | herbicidal effect rating, CYPSE ([5]; Rate 0.0320 kg/ha) | herbicidal effect rating, CYPSE ([5]; Rate 0.0620 kg/ha) | herbicidal effect rating, CYPSE ([5]; Rate 0.1250 kg/ha) | herbicidal effect rating, CYPSE ([5]; Rate 0.2500 kg/ha) | further results
1 | Cn1c(C(F)(F)F)cc(=O)n(-c2ccc3snc(/C=C/CBr)c3c2)c1=O [Example 360, 2,4(1H,3H)-Pyrimidinedione, 3-[3-(3-bromopropenyl)-1,2-benzisothiazol-5-yl]-1-methyl-6-(trifluoromethyl)-, (E)-] | 4.5 | 4.5 | 4.5 | 9.0 | 0.0 | 2.0 | 5.0 | 7.5 | 0.0 | 2.5 | 9.0 | 9.0 | 1.0 | 2.0 | 3.5 | 9.0 | 0.0 | 0.0 | 0.0 | 9.0 | herbicidal effect rating, MOOVA ([1]; Rate 0.5000 kg/ha): 9.0; herbicidal effect rating, ECHORC ([2]; Rate 0.5000 kg/ha): 9.0; herbicidal effect rating, CYPIR ([3]; Rate 0.5000 kg/ha): 9.0; herbicidal effect rating ORYSAT ([4]; Rate 0.5000 kg/ha): 9.0; herbicidal effect rating, SAGPY ([6]; Rate 0.0320 kg/ha): 1.5; herbicidal effect rating, SAGPY ([6]; Rate 0.0620 kg/ha): 4.5; herbicidal effect rating, SAGPY ([6]; Rate 0.1250 kg/ha): 4.5; herbicidal effect rating, SAGPY ([6]; Rate 0.2500 kg/ha): 9.0; herbicidal effect rating, SAGPY ([6]; Rate 0.5000 kg/ha): 9.0
2 | CN(C(=O)c1nsc2ccc(-n3c(=O)cc(C(F)(F)F)n(C)c3=O)cc12)c1ccc(Cl)cc1 [Example 365, 1,2-Benzisothiazole-3-carboxanilide, 4'-chloro-5-[3,6-dihydro-3-methyl-2,6-dioxo-4-(trifluoromethyl)-1(2H)-pyrimidinyl]-N-methyl-] | 9.0 | 9.0 | 9.0 | 9.0 | 4.0 | 6.0 | 9.0 | 9.0 | 4.0 | 6.0 | 6.0 | 9.0 | 3.0 | 5.0 | 5.0 | 5.0 | 4.0 | 4.0 | 4.0 | 9.0 | herbicidal effect rating, MOOVA ([1]; Rate 0.5000 kg/ha): 9.0; herbicidal effect rating, ECHORC ([2]; Rate 0.5000 kg/ha): 9.0; herbicidal effect rating, CYPIR ([3]; Rate 0.5000 kg/ha): 9.0; herbicidal effect rating ORYSAT ([4]; Rate 0.5000 kg/ha): 6.0; herbicidal effect rating, CYPSE ([5]; Rate 0.5000 kg/ha): 9.0; herbicidal effect rating, SAGPY ([6]; Rate 0.0320 kg/ha): 3.0; herbicidal effect rating, SAGPY ([6]; Rate 0.0620 kg/ha): 5.0; herbicidal effect rating, SAGPY ([6]; Rate 0.1250 kg/ha): 5.0; herbicidal effect rating, SAGPY ([6]; Rate 0.2500 kg/ha): 5.0; herbicidal effect rating, SAGPY ([6]; Rate 0.5000 kg/ha): 6.0
3 | Cc1nsc2cc(F)c(-n3c(=O)cc(C(F)(F)F)n(C)c3=O)cc12 [Example 366, 2,4(1H,3H)-Pyrimidinedione, 3-(6-fluoro-3-methyl-1,2-benzisothiazol-5-yl)-1-methyl-6-(trifluoromethyl)-] | 9.0 | 9.0 | 9.0 | 9.0 | 8.0 | 8.5 | 9.0 | 9.0 | 8.5 | 9.0 | 9.0 | 9.0 | 7.5 | 9.0 | 9.0 | 9.0 | 8.0 | 8.0 | 9.0 | 9.0 | herbicidal effect rating, MOOVA ([1]; Rate 0.5000 kg/ha): 9.0; herbicidal effect rating, ECHORC ([2]; Rate 0.5000 kg/ha): 9.0; herbicidal effect rating, CYPIR ([3]; Rate 0.5000 kg/ha): 9.0; herbicidal effect rating ORYSAT ([4]; Rate 0.5000 kg/ha): 9.0; herbicidal effect rating, CYPSE ([5]; Rate 0.5000 kg/ha): 9.0; herbicidal effect rating, SAGPY ([6]; Rate 0.0320 kg/ha): 7.0; herbicidal effect rating, SAGPY ([6]; Rate 0.0620 kg/ha): 8.0; herbicidal effect rating, SAGPY ([6]; Rate 0.1250 kg/ha): 9.0; herbicidal effect rating, SAGPY ([6]; Rate 0.2500 kg/ha): 9.0; herbicidal effect rating, SAGPY ([6]; Rate 0.5000 kg/ha): 9.0
4 | CN(C(=O)c1nsc2ccc(-n3c(=O)cc(C(F)(F)F)n(C)c3=O)cc12)S(C)(=O)=O [Example 367, 1,2-Benzisothiazole-3-carboxamide, 5-[3,6-dihydro-3-methyl-2,6-dioxo-4-(trifluoromethyl)-1(2H)-pyrimidinyl]-N-methyl-N-(methylsulfonyl)-] | 9.0 | 9.0 | 9.0 | 9.0 | 0.0 | 0.0 | 3.0 | 6.0 | 0.0 | 5.0 | 7.0 | 9.0 | 0.0 | 0.0 | 5.0 | 6.0 | 0.0 | 9.0 | 9.0 | 9.0 | herbicidal effect rating, SAGPY ([6]; Rate 0.0320 kg/ha): 0.0; herbicidal effect rating, SAGPY ([6]; Rate 0.0620 kg/ha): 2.0; herbicidal effect rating, SAGPY ([6]; Rate 0.1250 kg/ha): 5.0; herbicidal effect rating, SAGPY ([6]; Rate 0.2500 kg/ha): 9.0
5 | Cn1c(C(F)(F)F)cc(=O)n(-c2ccc3snc(COC(=O)Cc4ccccc4)c3c2)c1=O [Example 369, 2,4(1H,3H)-Pyrimidinedione, 3-[3-(hydroxymethyl)-1,2-benzisothiazol-5-yl]-1-methyl-6-(trifluoromethyl)-, phenylacetate (ester)] | 9.0 | 9.0 | 9.0 | 9.0 | 3.0 | 3.0 | 6.0 | 8.0 | 7.0 | 7.0 | 9.0 | 9.0 | 6.0 | 6.0 | 7.0 | 7.0 | 0.0 | 3.0 | 4.0 | 9.0 | herbicidal effect rating, SAGPY ([6]; Rate 0.0320 kg/ha): 0.0; herbicidal effect rating, SAGPY ([6]; Rate 0.0620 kg/ha): 6.0; herbicidal effect rating, SAGPY ([6]; Rate 0.1250 kg/ha): 9.0; herbicidal effect rating, SAGPY ([6]; Rate 0.2500 kg/ha): 9.0
6 | CCOCN(C(=O)c1nsc2ccc(-n3c(=O)cc(C(F)(F)F)n(C)c3=O)cc12)S(C)(=O)=O [Example 370, 1,2-Benzisothiazole-3-carboxamide, 5-[3,6-dihydro-3-methyl-2,6-dioxo-4-(trifluoromethyl)-1(2H)-pyrimidinyl]-N-(ethoxymethyl)-N-(methylsulfonyl)-] | 7.0 | 9.0 | 9.0 | 9.0 | 3.0 | 4.0 | 6.0 | 7.0 | 4.0 | 7.0 | 9.0 | 9.0 | 3.0 | 4.0 | 4.0 | 5.0 | 0.0 | 4.0 | 7.0 | 9.0 | herbicidal effect rating, SAGPY ([6]; Rate 0.0320 kg/ha): 0.0; herbicidal effect rating, SAGPY ([6]; Rate 0.0620 kg/ha): 3.0; herbicidal effect rating, SAGPY ([6]; Rate 0.1250 kg/ha): 7.0; herbicidal effect rating, SAGPY ([6]; Rate 0.2500 kg/ha): 9.0
7 | Cn1c(C(F)(F)F)cc(=O)n(-c2cc3c(C(Br)Br)nsc3cc2F)c1=O [Example 372, 2,4(1H,3H)-Pyrimidinedione, 3-[3-(dibromomethyl)-6-fluoro-1,2-benzisothiazol-5-yl]-1-methyl-6-(trifluoromethyl)-] | 9.0 | 9.0 | 9.0 | 9.0 | 9.0 | 9.0 | 9.0 | 9.0 | 8.5 | 9.0 | 9.0 | 9.0 | 6.0 | 8.0 | 8.0 | 9.0 | 1.0 | 5.0 | 8.5 | 9.0 | herbicidal effect rating, SAGPY ([6]; Rate 0.0320 kg/ha): 8.5; herbicidal effect rating, SAGPY ([6]; Rate 0.0620 kg/ha): 9.0; herbicidal effect rating, SAGPY ([6]; Rate 0.1250 kg/ha): 9.0; herbicidal effect rating, SAGPY ([6]; Rate 0.2500 kg/ha): 9.0
